Reference: US12090122B2, “Curcumin-based compositions and methods of use thereof” (priority 2017, dated 2024)

How the values were obtained:
Type in all cases: cell-based
[1] = system: NFkB-p65; assay: Western blot of cytoplasmic and nuclear NFkB-p65 protein levels (nucleotranslocation) in LPS-induced BV2 cells; conditions: 22.0 μg/ml, 30 min pre-treatment, LPS induction, FIGS. 3 and 4
Experimental: (§1) Example 2—Western Blot Analysis of Cytoplasmic and Nuclear MSK1 Levels. Western blot analysis was performed in multiple varying formats before optimization was achieved. The BV2 microglia cell line was cultured in Dulbecco's Modified Eagle's Medium (DMEM)—complete medium. The complete medium consisted of DMEM, 1% Ampicillin, and 10% Fetal Bovine Serum (FBS). BV2 microglia cells, at a cell count of approximately 2×10^6, were seeded in each well (6 wells per plate) with 2.0 ml complete medium and cultured overnight in a ThermaForma HepaFilter Series II CO2 Incubator at 37° Celsius. Upon establishing confluence, subconfluent cells were washed out and the wells were prepared with drug pre-treatment after overnight incubation.
(§2) The test drugs (curcuminoids) were procured as follows: curcumin I research standard (03926) (ChromaDex Irvine, CA USA) (97.7% purity); curcumin II research standard (04230) (ChromaDex Irvine, CA USA) (97.3%); curcumin III research standard (B6938) (Sigma-Aldrich St. Louis, Missouri, USA) (97.7% purity); curcumin extract (curcumin I—77.7%, curcumin II—16.9%, curcumin III—0.9%) research standard (03928) (ChromaDex Irvine, CA USA) (95.3% purity); and Lipopolysaccharide (LPS) from E. Coli (L2630) (Sigma-Aldrich St. Louis, Missouri, USA).
(§3) Curcuminoids are not soluble in aqueous medium due to their hydrophobic characteristic. However, curcuminoid extracts are soluble in polar organic solvents, such as DMSO and acetone. In this Example, each curcuminoid preparation was first dissolved in DMSO. DMSO was used in the drug preparation at 0.2%. The drug/DMSO solution was subsequently dissolved in DMEM to achieve a final drug concentration for each curcuminoid preparation tested—22.0 μg/ml curcuminoid. […]
(§4) Total protein concentration for each fraction was determined using a Bio Rad Protein Assay that is based on the Bradford Assay (dye-binding method). […]
(§5) The targets analyzed in the Western Blot included NFkB-p65 and its nucleocytoplasmic translocation, as well as kinases (including MSK1) and their covalent modifications upstream of and involved in the regulation of NFkB. […]

[2] = system: NFkB p65 phosphorylated at the serine 276 phosphosite; assay: Western blot of NFkB-p65 phosphorylated at serine 276 in LPS-induced BV2 cells; conditions: 22.0 μg/ml, 30 min pre-treatment, LPS induction, cytoplasmic and nuclear, FIGS. 5 and 6
Experimental: as §1, §2, §3, §4, §5

[3] = system: MSK1 phosphorylated at the serine 376 phosphosite; assay: Western blot of MSK1 phosphorylated at serine 376 in LPS-induced BV2 cells; conditions: 22.0 μg/ml, 30 min pre-treatment, LPS induction, FIGS. 9 and 10
Experimental: as §1, with “incubation. […]” for “incubation.”
as §4, §5

Row | Compound | NFkB-p65 nucleotranslocation (cytosolic and nuclear NFkB-p65 levels relative to total protein) [1] | NFkB-p65 serine 276 phosphorylation [2] | MSK1 serine 376 phosphorylation [3]
1 | COc1cc(/C=C/C(=O)/C=C(O)/C=C/c2ccc(O)c(OC)c2)ccc1O [curcumin I, (1E,6E)-1,7-Bis(4-hydroxy-3-methoxyphenyl)-1,6-heptadiene-3,5-dione, reference compound] | not significantly inhibited | moderately inhibit | 
2 | COc1cc(/C=C/C(=O)CC(=O)/C=C/c2ccc(O)cc2)ccc1O [curcumin II, (1E,6E)-1-(4-Hydroxy-3-methoxyphenyl)-7-(4-hydroxyphenyl)hepta-1,6-diene-3,5-dione] | not significantly inhibited | moderately inhibit | inhibit
3 | O=C(/C=C/c1ccc(O)cc1)CC(=O)/C=C/c1ccc(O)cc1 [curcumin III, (1E,6E)-1,7-bis(4-hydroxyphenyl)hepta-1,6-diene-3,5-dione] | not significantly inhibited | moderately inhibit | 
